“Also recorded” adds a separate entry of the source. Read-outs that look alike come from different tables or passages of the source.
Key:
[1] = test system: wildtype and TNF-α KO mice
Procedure: Tinnitus was assessed using the gap detection paradigm. The gap detection task measures the acoustic startle response elicited by a brief white noise pulse and its suppression by a preceding silent gap embedded in a background sound. […] Mice were placed in a small box, which rested atop a piezoelectric sensor within a sound attenuation chamber. Sounds were played through an open field speaker (FOSTEX FT17H) fixed above the small box. Each trial began with a carrier pure tone (frequency pseudo-randomly selected from 5, 7, 10, 14, 20, 28, or 45 kHz, all at 75 dB SPL), played for 10-20 s. In uncued trials, the carrier tone was followed by a startle stimulus—a 50 ms white noise burst at 102 dB SPL. In cued trials, the startle stimulus was preceded by a 50 ms silence, 100 ms prior to its onset. In each testing session, the animal performed a total of 500 trials (50% cued and 50% uncued). After each session, the startle response ratio was calculated, which is defined as the average startle amplitude to the cued trials divided by the average amplitude of the uncued trials. The startle response ratio signifies a silent-gap induced reduction of the startle response. For example, a startle response ratio of 0.6 indicates a 40% reduction of the startle amplitude for the cued trials.

WT and KO mice = conditions: systemic salicylate injection, FIGS. 5C-5D
Procedure: To assess an animal's ability to perform an auditory task, separate from its ability to detect a silent gap, the pre-pulse inhibition (PPI) task was administered to a subset of the mice before and after NIHL. The physical setup for the PPI task was identical to that of the gap detection. However, the trial structure differed in that carrier tone was absent and a white noise burst was cued by a 50-ms pure tone pulse (frequency pseudo-randomly selected from 5, 7, 10, 14, 20, 28, or 45 kHz, all at 75 dB SPL). In short, the PPI task tests an animal's ability to detect a pure tone pulse in silence, while the gap detection task measures an animal's ability to detect a silent gap in a continuous pure tone.

TNF-α = conditions: has been shown; cited from earlier work
blast-exposed rats [2] = test: Blast-induced tinnitus, gap detection, thalidomide treatment; assay type: in vivo, rat; conditions: injected daily for 5 days, FIG. 8C
Procedure: A rat model of blast-induced tinnitus was developed to investigate the role of TNF-α in a traumatic brain injury (TBI) blast exposure induced tinnitus. Rats were anesthetized with isoflurane (0.75-1% in a 2:1 N2O:O2 gas mixture), placed on supportive netting, and secured with a locking device. All animals had one ear occluded with an earplug before they were blast-exposed in a shock-tube assembly (ORA, Inc.).
Behavioral evidence of blast-induced tinnitus was tested using a gap detection test as described above. […] Blast-exposed rats also spent less time in, and made fewer entries into, the open arms of an elevated plus maze (FIG. 7C), showing a higher anxiety level. The results are consistent with findings in blast-exposed humans and indicate that the blast model is suitable for studying mechanisms and treatment of blast-induced tinnitus and anxiety.

C57BL/6 mice = test: Noise-induced tinnitus (NIHL), gap detection task, thalidomide treatment; assay type: in vivo, mouse; conditions: 100 mg/kg IP daily for three days after noise exposure, FIG. 9
Procedure: All experimental procedures were reviewed and approved by UC Berkeley Animal Care and Use Committee. TNF-α knockout (KO) mice and corresponding C75Bl/6 wild-type (WT) mice were originally purchased from the Jackson Laboratory and were bred in a UC Berkeley animal facility. Animals were anesthetized with ketamine (100 mg/kg, IP) and xylazine (10 mg/kg, IP) and maintained at 36.5° C. with a homeothermic heating pad (Harvard Apparatus). Unilateral noise-induced hearing loss (NIHL) experiments were performed in a sound attenuation chamber by playing a continuous pure tone of 8 kHz at 112 dB SPL through a calibrated custom-made piezo earphone speaker to the left ear of the mouse for 2 hours, while the right ear was protected with sound attenuating clay. The sound level was calibrated with a Bruel and Kjaer 4135 condenser microphone (Nærum, Denmark) before and after the NIHL.
Tinnitus was assessed using the gap detection paradigm.
Eight C57BL/6 mice were tested with the gap detection task, described above, before and after undergoing NIHL. […] Afterward, animals received daily injection of 100 mg/kg (IP) thalidomide for three days and were tested for tinnitus.

blast-exposed rats [3] = test: Blast-induced tinnitus, gap ratio, etanercept; assay type: in vivo, rat; conditions: for gap ratio values (gap/startle-only response), therapeutic effect on tinnitus: FIG. 29
Procedure: Each of the rats was subjected to blast exposure in the left ear using a shock tube (ORA Inc.) located at the Wayne State University Bioengineering Center. The blast exposure of each rat was performed under anesthesia with a mixture of air (1 liter/min) and isoflurane (5% v/v). The rat was placed on supportive netting with a metal surround and secured on a pole with its head facing the oncoming shockwave. During blast exposure, the rat's right ear was occluded with a silicone earplug (Mack's; McKeon Products, Warren, Mich.), followed by application of mineral oil to seal any remaining openings. The average energy under 10 kHz measured at 22 psi was equivalent to 150 kPa or 197.5 dB SPL. After blast exposure, each rat was transferred to a polycarbonate cage.
Thirty two rats from Example 10 were used. Behavioral tinnitus testing, including gap detection and PPI testing, was conducted with Hamilton-Kinder startle-reflex hardware and software. During behavioral testing, each rat was placed in an individual noise-attenuation chamber to perform gap and PPI testing. In the gap procedure, each rat was presented with a constant 60-dB SPL background noise composed of 2,000 Hz bandpass signals at 6-8, 10-12, 14-16, 18-20, or 26-28 kHz or broadband noise (BBN; 2-30 kHz). A 115 dB SPL, 50 ms noise-burst was used as the startle stimulus to induce the acoustic startle reflex. The background noise session contained two conditions, one condition was the startle only condition in which rat was presented with the startle stimulus alone, and the other condition was the gap condition in which a rat was presented with a startle stimulus preceded by a silent gap embedded within the background noise. Silent gaps were 40 ms in duration with a lead interval of 90 ms to the startle stimulus. The startle reflex of rats was measured in response to 3 conditions: 1) background noise alone, 2) startle only, and 3) gap. […] The startle amplitude of rats in response to the two conditions was measured: the startle-only condition and a prepulse followed by the startle stimulus. […]

[4] = 5 mg/kg, I.P. route; cited from earlier work

O=C(O)c1ccccc1O [salicylate]
behavioral manifestation of tinnitus (gap detection) ([1]; TNF-α KO mice, same dose 300 mg/kg, FIG. 5B): did not show tinnitus | behavioral manifestation of tinnitus (gap detection) ([1]; wildtype mice, systemic injection 300 mg/kg, 30 min later, FIG. 5A): resulted in robust behavioral manifestation of tinnitus | PPI performance (WT and KO mice): affected PPI performance in WT but not KO mice | TNF-α expression in the inferior colliculus (TNF-α): increase TNF-α expression in the inferior colliculus

O=C1CCC(N2C(=O)c3ccccc3C2=O)C(=O)N1 (stereo not shown) [thalidomide]
blast-induced tinnitus (gap detection) (blast-exposed rats [2]): Significant suppression of tinnitus; also recorded: significantly suppressed | gap detection performance after NIHL (C57BL/6 mice): dramatically improved gap detection performance over a wide frequency range, completely reversing the impairment

etanercept
gap ratio values (gap/startle-only response), therapeutic effect on tinnitus (blast-exposed rats [3]; 5 mg/kg i.p. daily for 5 days from 1 day after blast, low frequencies and 28 kHz, two-week and three-week timepoints): significant therapeutic effect on tinnitus | gap ratio values (gap/startle-only response), therapeutic effect on tinnitus (blast-exposed rats [3]; 5 mg/kg i.p. daily for 5 days, one-day and one-week timepoints): less pronounced | onset of therapeutic effect relative to 3,6′-dithiothalidomide (blast-exposed rats [3]; compare FIG. 29 with FIG. 15A): delayed therapeutic effect | effect on TBI [4]: attenuates TBI

From patent US20180021315A1, “METHODS OF TREATING HEARING DISORDERS” (Wayne State University, priority 2016, published 2018)
